# Results from patent publication US4521422A, “Aryl and heteroaryl[7-(aryl and heteroaryl)pyrazolo[1,5-a]pyrimidin-3-yl]methanones” (American Cyanamid Company, priority 1984, dated 1985).
# What was measured:
# [1] = tested on: Clonic Seizures Caused by Pentylenetetrazole in Rats; test: Protection against clonic seizures caused by pentylenetetrazole in rats; type: in vivo; conditions: Rattus norvegicus; dose 25.0 mg/kg, oral or i.p.; pentylenetetrazole 23 mg/kg i.v. at 30 or 60 min; read-out: % of Rats Protected
# Protocol: The anti-anxiety and anticonvulsant properties of the novel compounds of the present invention have been established in a test which indicates anxiolytic and antiepileptic activity by the measure of protection from convulsions resulting from the administration of pentylenetetrazole. Single or graded dose levels of the test compounds were administered orally or intraperitoneally in a 2% starch vehicle, containing 0.5% v/v polyethylene glycol and one drop of Polysorbate 80 to groups of at least 4 rats. At 30 or 60 minutes, the rats were treated intravenously with pentylenetetrazole at a dose of 23 mg/kg of body weight. This dose is estimated to cause clonic seizures in 99% of unprotected rats. It has been reported [R. T. Hill and D. H. Tedeschi, "Animal Testing and Screening Procedures in Evaluating Psychotropic Drugs" in "An Introduction to Psychopharmacology", Eds. R. R. Rech and K. E. Moore, Raven Press, New York, pp 237-288 (1971)] that there is a high degree of correlation between antagonism of pentylenetetrazole seizures in rats and anti-anxietyor anticonvulsant effects in higher warm-blooded animals.
# [2] = tested on: Nonconditioned Passive Avoidance in Rats; test: Nonconditioned passive avoidance (conflict) test in rats; type: in vivo, rat (Wistar); design: key: Active: considered active if the number of shocks received by the test group is significantly higher than the control group by the Mann-Witney U test; conditions: oral or i.p.
# Protocol: Another test which has been used to assess anti-anxiety effects is a nonconditioned passive avoidance procedure described by [J. R. Vogel, B. Beer and D. E. Clody, "A Simple and Reliable Conflict Procedure for Testing Anti-Anxiety Agents", Psychopharmacologia, 21, 1-7 (1971)]. A conflict situation is induced in rats by a modification of this method.
# Groups of 6 naive, Wistar strain rats, weighing 200-240 g each were deprived of water for 48 hours and food for 24 hours. The test compounds were administered in single or graded, oral or intraperitoneal doses, suspended in a 2% starch vehicle containing 0.5% v/v polyethylene glycol and one drop of polysorbate 80. Control animals received the vehicle alone. At 30 to 60 minutes each rat was placed in an individual plexiglass chamber. Water was available ad libitum from a tap located in the rear of the chamber. A 0.7 milliampere DC shocking current was established between the stainless steel grid floor and the tap. After 20 licks of non-shocked drinking, a shock was delivered for 2 seconds and then further shocks were delivered on a ratio of one shock for 2 seconds for every 20 licks. This was continued for a total of 3 minutes. The number of shocks taken by each rat during the 3 minute interval was recorded and compared to a control group. […]
# [3] = tested on: Brain-Specific Receptors of Rats; test: Inhibition of the binding of 3H-benzodiazepine to brain-specific receptors of rats; design: species or system rat (Wistar); conditions: 3H-diazepam 1.5 nM or 3H-flunitrazepam 1.0 nM; rat cortex P2 fraction; test concentration not given
compound,measurement,setting,value
"O=C(c1ccc2c(c1)OCO2)c1cnn2c(-c3cccnc3)ccnc12 [1,3-benzodioxol-5-yl[7-(3-pyridinyl)pyrazolo[1,5-a]pyrimidin-3-yl]methanone]",responders at 25 mg/kg,[1],50%
same,Result (nonconditioned passive avoidance),[2]; dose 25.0 mg/kg,Active
"O=C(c1ccncc1)c1cnn2c(-c3cccnc3)ccnc12 [4-pyridinyl[7-(3-pyridinyl)pyrazolo[1,5-a]pyrimidin-3-yl]methanone]",responders at 25 mg/kg,[1],100%
same,Result (nonconditioned passive avoidance),[2]; dose 25.0 mg/kg,Active
"O=C(c1ccncc1)c1cnn2c(-c3cccc(C(F)(F)F)c3)ccnc12 [4-pyridinyl[7-[3-(trifluoromethyl)phenyl]pyrazolo[1,5-a]pyrimidin-3-yl]methanone]",responders at 25 mg/kg,[1],100%
same,Result (nonconditioned passive avoidance),[2]; dose 25.0 mg/kg,Active
"O=C(c1ccccc1F)c1cnn2c(-c3cccnc3)ccnc12 [(2-fluorophenyl)[7-(3-pyridinyl)pyrazolo[1,5-a]pyrimidin-3-yl]methanone]",responders at 25 mg/kg,[1],100%
same,Result (nonconditioned passive avoidance),[2]; dose 25.0 mg/kg,Active
"COc1ccc(C(=O)c2cnn3c(-c4cccc(C(F)(F)F)c4)ccnc23)cc1OC [(3,4-dimethoxyphenyl)[7-[3-(trifluoromethyl)phenyl]pyrazolo[1,5-a]pyrimidin-3-yl]methanone]",% Inhibition,[3],94%
same,responders at 25 mg/kg,[1],50%
"Cc1cccc(C(=O)c2cnn3c(-c4cccc(C)c4)ccnc23)c1 [(3-methylphenyl)[7-(3-methylphenyl)pyrazolo[1,5-a]pyrimidin-3-yl]methanone]",% Inhibition,[3],75%
same,responders at 25 mg/kg,[1],25%
"Cc1cccc(C(=O)c2cnn3c(-c4cccc(C(F)(F)F)c4)ccnc23)c1 [(3-methylphenyl)[7-[3-(trifluoromethyl)phenyl]pyrazolo[1,5-a]pyrimidin-3-yl]methanone]",% Inhibition,[3],67%
same,responders at 25 mg/kg,[1],25%
"O=C(c1ccc(F)cc1)c1cnn2c(-c3ccccc3F)ccnc12 [(4-fluorophenyl)[7-(2-fluorophenyl)pyrazolo[1,5-a]pyrimidin-3-yl]methanone]",% Inhibition,[3],22%
same,responders at 25 mg/kg,[1],50%
"O=C(c1ccc(F)cc1)c1cnn2c(-c3ccccn3)ccnc12 [(4-fluorophenyl)[7-(2-pyridinyl)pyrazolo[1,5-a]pyrimidin-3-yl]methanone]",% Inhibition,[3],17%
same,responders at 25 mg/kg,[1],50%
"Cc1ccc(C(=O)c2cnn3c(-c4ccncc4)ccnc23)cc1 [(4-methylphenyl)[7-(4-pyridinyl)pyrazolo[1,5-a]pyrimidin-3-yl]methanone]",% Inhibition,[3],19%
same,responders at 25 mg/kg,[1],50%
"Cc1cnc2c(C(=O)c3ccccc3)cnn2c1-c1ccccc1 [(6-methyl-7-phenylpyrazolo[1,5-a]pyrimidin-3-yl)phenyl-methanone]",% Inhibition,[3],24%
same,responders at 25 mg/kg,[1],25%
"CC(=O)N(C)c1ccc(-c2ccnc3c(C(=O)c4ccccc4)cnn23)cc1 [N--[4-(3-benzoylpyrazolo[1,5-a]pyrimidin-7-yl)phenyl]-N--methylacetamide]",Result (nonconditioned passive avoidance),[2]; dose 25.0 mg/kg,Active
"CCC(=O)N(CC)c1cccc(-c2ccnc3c(C(=O)c4ccco4)cnn23)c1 [N-Ethyl-N-[3-[3-(2-furanylcarbonyl)pyrazolo[1,5-a]pyrimidin-7-yl]phenyl]propanamide]",Result (nonconditioned passive avoidance),[2]; dose 12.5 mg/kg,Active
"Cc1nn2c(-c3cccnc3)ccnc2c1C(=O)c1ccccc1 [[2-methyl-7-(3-pyridinyl)pyrazolo[1,5-a]pyrimidin-3-yl]phenyl-methanone]",% Inhibition,[3],52%
same,responders at 25 mg/kg,[1],50%
"O=C(c1cccc(C(F)(F)F)c1)c1cnn2c(-c3cccc(C(F)(F)F)c3)ccnc12 [[3-(trifluoromethyl)phenyl][7-[3-(trifluoromethyl)phenyl]pyrazolo[1,5-a]pyrimidin-3-yl]methanone]",% Inhibition,[3],56%
"Cc1cc(-c2cccnc2)n2ncc(C(=O)c3ccccc3)c2n1 [[5-Methyl-7-(3-pyridinyl)pyrazolo[1,5-a]pyrimidin-3-yl]phenyl-methanone]",% Inhibition,[3],15%
"Cc1cc(-c2cc[n+]([O-])cc2)n2ncc(C(=O)c3ccccc3)c2n1 [[5-Methyl-7-(4-pyridinyl)pyrazolo[1,5-a]pyrimidin-3-yl]phenyl-methanone, pyridine-1-oxide]",% Inhibition,[3],52%
same,responders at 25 mg/kg,[1],25%
"Cc1cc(-c2ccncc2)n2ncc(C(=O)c3ccccc3)c2n1 [[5-Methyl-7-(4-pyridinyl)pyrazolo[1,5-a]pyrimidin-3-yl]phenyl-methanone]",% Inhibition,[3],93%
"Cc1cc(-c2cccc(C(F)(F)F)c2)n2ncc(C(=O)c3ccccc3)c2n1 [[5-Methyl-7-[3-(trifluoromethyl)phenyl]pyrazolo[1,5-a]pyrimidin-3-yl]phenyl-methanone]",% Inhibition,[3],27%
"O=C(c1ccccc1)c1cnn2c(-c3cc(Cl)ccc3Cl)ccnc12 [[7-(2,5-dichlorophenyl)pyrazolo[1,5-a]pyrimidin-3-yl]phenyl-methanone]",% Inhibition,[3],21%
"O=C(c1ccco1)c1cnn2c(-c3ccccc3F)ccnc12 [[7-(2-fluorophenyl)pyrazolo[1,5-a]pyrimidin-3-yl]-2-furanyl-methanone]",% Inhibition,[3],34%
"O=C(c1cccc(C(F)(F)F)c1)c1cnn2c(-c3ccco3)ccnc12 [[7-(2-furanyl)pyrazolo[1,5-a]pyrimidin-3-yl][3-(trifluoromethyl)phenyl]methanone]",% Inhibition,[3],36%
"Cc1cc(-c2ccc(Cl)c(Cl)c2)n2ncc(C(=O)c3ccccc3)c2n1 [[7-(3,4-dichlorophenyl)-5-methylpyrazolo[1,5-a]pyrimidin-3-yl]phenyl-methanone]",% Inhibition,[3],97%
same,responders at 25 mg/kg,[1],25%
"COc1ccc(-c2cc(C)nc3c(C(=O)c4ccc(F)cc4)cnn23)cc1OC [[7-(3,4-dimethoxyphenyl)-5-methylpyrazolo[1,5-a]pyrimidin-3-yl](4-fluorophenyl)methanone]",% Inhibition,[3],48%
same,responders at 25 mg/kg,[1],25%
"O=C(c1ccccc1)c1cnn2c(-c3cc(Cl)cc(Cl)c3)ccnc12 [[7-(3,5-dichlorophenyl)pyrazolo[1,5-a]pyrimidin-3-yl]phenyl-methanone]",% Inhibition,[3],20%
same,responders at 25 mg/kg,[1],25%
"O=C(c1ccccc1)c1cnn2c(-c3cccc(Cl)c3)ccnc12 [[7-(3-chlorophenyl)pyrazolo[1,5-a]pyrimidin-3-yl]phenyl-methanone]",% Inhibition,[3],95%
"O=C(c1ccccc1)c1cnn2c(-c3cccc(F)c3)ccnc12 [[7-(3-fluorophenyl)pyrazolo[1,5-a]pyrimidin-3-yl]phenyl-methanone]",% Inhibition,[3],88%
"O=C(c1cccs1)c1cnn2c(-c3cccnc3)ccnc12 [[7-(3-pyridinyl)pyrazolo[1,5-a]pyrimidin-3-yl]-2-thienyl-methanone]",% Inhibition,[3],82%
same,responders at 25 mg/kg,[1],75%
"O=C(c1cccs1)c1cnn2c(-c3ccncc3)ccnc12 [[7-(4-pyridinyl)pyrazolo[1,5-a]pyrimidin-3-yl]-2-thienyl-methanone]",% Inhibition,[3],62%
"O=C(c1cccc(C(F)(F)F)c1)c1cnn2c(-c3ccncc3)ccnc12 [[7-(4-pyridinyl)pyrazolo[1,5-a]pyrimidin-3-yl][3-(trifluoromethyl)phenyl]methanone]",% Inhibition,[3],99%
"O=C(c1ccccc1)c1cnn2c(-c3cc(C(F)(F)F)ccc3Cl)ccnc12 [[7-[2-chloro-5-(trifluoromethyl)phenyl]pyrazolo[1,5-a]pyrimidin-3-yl]phenyl-methanone]",% Inhibition,[3],86%
"CSc1cccc(-c2ccnc3c(C(=O)c4ccccc4)cnn23)c1 [[7-[3-(methylthio)phenyl]pyrazolo[1,5-a]pyrimidin-3-yl]phenyl-methanone]",% Inhibition,[3],98%
"O=C(c1ccccc1)c1cnn2c(-c3ccccn3)ccnc12 [phenyl[7-(2-pyridinyl)pyrazolo[1,5-a]pyrimidin-3-yl]methanone]",% Inhibition,[3],30%
"O=C(c1ccccc1)c1cnn2c(-c3cccs3)ccnc12 [phenyl[7-(2-thienyl)pyrazolo[1,5-a]pyrimidin-3-yl]methanone]",% Inhibition,[3],96%
"COc1cc(-c2ccnc3c(C(=O)c4ccccc4)cnn23)cc(OC)c1OC [phenyl[7-(3,4,5-trimethoxyphenyl)pyrazolo[1,5-a]pyrimidin-3-yl]methanone]",% Inhibition,[3],24%
"O=C(c1ccccc1)c1cnn2c(-c3ccsc3)ccnc12 [phenyl[7-(3-thienyl)pyrazolo[1,5-a]pyrimidin-3-yl]methanone]",% Inhibition,[3],96%
